pIC50: −log10 of the molar value.

The test deals with T1, wild-type human ALK cytoplasmic domain (amino acids 1058-1620) (Homo sapiens, UniProt Q9UM73).
T1 construct: The cytoplasmic domain (amino acids 1058-1620) of wild-type human ALK; GST (N); made in house; host or cells: SF9 insect cells
T1 sequence (Q9UM73 1058-1620): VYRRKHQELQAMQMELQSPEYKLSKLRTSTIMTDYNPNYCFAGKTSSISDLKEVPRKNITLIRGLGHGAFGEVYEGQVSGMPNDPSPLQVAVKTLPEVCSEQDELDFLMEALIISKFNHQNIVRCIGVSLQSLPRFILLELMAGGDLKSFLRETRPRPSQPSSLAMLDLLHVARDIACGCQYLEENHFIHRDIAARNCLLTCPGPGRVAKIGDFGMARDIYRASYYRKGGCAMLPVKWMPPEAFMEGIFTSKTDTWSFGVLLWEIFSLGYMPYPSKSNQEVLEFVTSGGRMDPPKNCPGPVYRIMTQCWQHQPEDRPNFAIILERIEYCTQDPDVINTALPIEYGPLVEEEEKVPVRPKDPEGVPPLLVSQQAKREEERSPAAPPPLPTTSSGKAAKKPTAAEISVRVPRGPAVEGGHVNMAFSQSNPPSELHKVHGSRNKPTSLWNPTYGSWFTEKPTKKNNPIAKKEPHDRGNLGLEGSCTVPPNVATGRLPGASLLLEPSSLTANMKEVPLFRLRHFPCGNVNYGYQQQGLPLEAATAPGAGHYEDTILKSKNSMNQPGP
Briefly: ALK Inhibition in Enzyme Assay (Lance TR-FRET). The test is classed as biochemical. The following applies: 2 nM enzyme, ATP at 40 μM (Km apparent), 90 minutes, mean of three replicates; read-out: ALK IC50. The method in brief: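 TR-FRET read-out (Eu-W1024 PT66 anti-phosphotyrosine plus streptavidin-allophycocyanin, 320 nm excitation) quantified biotinylated peptide phosphorylation by the purified kinase. Reaction ran 90 minutes at room temperature before quenching with 20 mM EDTA in Tris pH 7.5 buffer with NaCl, BSA and Tween-20.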
One may read the pIC50 as the negative decadic logarithm of the IC50, by convention in mol/L. Turning to `Cc1ccc(CNC(=O)[C@H]2CCCN(c3ccnc(Nc4cccc(F)c4)n3)C2)cc1` [Example 185, (3S)-1-(2-((3-fluorophenyl)amino)-4-pyrimidinyl)-N-(4-methylbenzyl)-3-piperidinecarboxamide], the pIC50 is 5.30 to 6.00.
Under `Cc1ccc(CNC(=O)[C@H]2CCCN(c3ccnc(Nc4ccc(C(=O)c5ccccc5)cc4)n3)C2)cc1` [Example 186, (S)-1-(2-(4-benzoylphenylamino)pyrimidin-4-yl)-N-(4-methylbenzyl)piperidine-3-carboxamide] stands 5.00 to 5.30.
Under `CCN(CC)CCNC(=O)c1ccc(Nc2nccc(N3CCC[C@H](C(=O)NCc4ccc(C)cc4)C3)n2)cc1` [Example 187, (S)-1-(2-(4-(2-(diethylamino)ethylcarba-moyl)phenylamino)pyri-midin-4-yl)-N-(4-methylbenzyl)piperidine-3-carboxamide] stands 6.00 to 7.00.
Under `Cc1ccc(CNC(=O)[C@H]2CCCN(c3ccnc(Nc4ccc(S(N)(=O)=O)cc4)n3)C2)cc1` [Example 188, (S)-N-(4-methylbenzyl)-1-(2-(4-sulfamoylphenylamino)pyrimidin-4-yl)piperidine-3-carboxamide] stands 6.00 to 7.00.
Take `Cc1ccc(CNC(=O)[C@H]2CCCN(c3ccnc(Nc4ccc(-c5cnco5)cc4)n3)C2)cc1` [Example 189, (S)-N-(4-methylbenzyl)-1-(2-(4-(oxazol-5-yl)phenylamino)py-rimidin-4-yl)piperidine-3-carboxamide]: the pIC50 was 5.30 to 6.00.
Next, `Cc1ccc(CNC(=O)[C@H]2CCCN(c3ccnc(Nc4cc(OC[C@H]5CCCN5C)cc(C(F)(F)F)c4)n3)C2)cc1` [Example 190, (S)-N-(4-methylbenzyl)-1-(2-(3-(((R)-1-methylpyrrolidin-2-yl)methoxy)-5-(trifluoromethyl)phenylamino)pyrimidin-4-yl)piperidine-3-carboxamide]: 7.00 to 7.30; `Cc1ccc(CNC(=O)[C@H]2CCCN(c3ccnc(Nc4ccc(-n5cncn5)cc4)n3)C2)cc1` [Example 191, (S)-1-(2-(4-(1H-1,2,4-triazol-1-yl)phenylamino)pyrimidin-4-yl)-N-(4-methylbenzyl)piperidine-3-carboxamide]: 5.30 to 6.00.
As to `CCOc1ccc(Nc2nccc(N3CCC[C@H](C(=O)NCc4ccc(C)cc4)C3)n2)cc1` [Example 192, (S)-1-(2-(4-ethoxyphenylamino)pyrimidin-4-yl)-N-(4-methylbenzyl)piperidine-3-carboxamide], the pIC50 was 5.30 to 6.00.
Next, `Cc1ccc(CNC(=O)[C@H]2CCCN(c3ccnc(Nc4ccc(N5CCNC(=O)C5)nc4)n3)C2)cc1` [Example 193, (S)-N-(4-methylbenzyl)-1-(2-(6-(3-oxopiperazin-1-yl)pyridin-3-ylamino)pyrimidin-4-yl)piperidine-3-carboxamide]: 5.30 to 6.00.

The values are drawn from patent US8716281B2, “Pyrimidine compounds that inhibit anaplastic lymphoma kinase” (Amgen Inc., priority 2010, dated 2014).
